pKd: −log10 of the molar value. Where two headings read alike, the source gives them in different places.
Key:
CDH11 (SACC-83 cells) = target: T1, CDH11 (SACC-83 cells) (Homo sapiens, UniProt P55287); experiment: cellular thermal shift assay (western blot); assay type: cell-based; conditions: intact cells, 6 h treatment at cell-viability IC50 dose; 53-66 °C, 3 min
T1 construct: endogenous CDH11 in intact SACC-83 cells, untagged, detected by western blot with anti-CDH11 antibody
T1 sequence (P55287 54-796): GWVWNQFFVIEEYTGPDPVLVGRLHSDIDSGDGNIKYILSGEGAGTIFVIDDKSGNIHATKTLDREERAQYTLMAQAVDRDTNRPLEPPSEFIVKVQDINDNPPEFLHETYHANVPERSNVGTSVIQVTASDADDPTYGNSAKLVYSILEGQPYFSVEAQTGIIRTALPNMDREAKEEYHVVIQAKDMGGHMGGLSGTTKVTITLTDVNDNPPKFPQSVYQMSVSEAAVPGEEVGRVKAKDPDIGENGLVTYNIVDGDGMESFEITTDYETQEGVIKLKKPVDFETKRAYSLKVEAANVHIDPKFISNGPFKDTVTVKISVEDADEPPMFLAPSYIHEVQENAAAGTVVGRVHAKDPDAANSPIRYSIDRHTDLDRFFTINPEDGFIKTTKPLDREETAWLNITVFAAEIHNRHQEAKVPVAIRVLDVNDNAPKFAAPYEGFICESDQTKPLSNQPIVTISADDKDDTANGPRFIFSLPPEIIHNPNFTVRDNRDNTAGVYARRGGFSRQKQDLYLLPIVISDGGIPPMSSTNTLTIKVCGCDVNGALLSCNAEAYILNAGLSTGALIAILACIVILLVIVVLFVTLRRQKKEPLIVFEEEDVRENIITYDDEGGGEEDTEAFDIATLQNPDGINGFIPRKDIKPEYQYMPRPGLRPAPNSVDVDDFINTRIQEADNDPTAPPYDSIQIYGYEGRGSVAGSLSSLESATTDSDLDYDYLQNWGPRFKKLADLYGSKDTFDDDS

[1] = target: T2, Recombinant Human His-Tagged Cadherin-11 Protein (CDH11) (Homo sapiens, UniProt P55287); experiment: surface plasmon resonance (Biacore, CM7 chip, protein immobilised); assay type: binding
T2 construct: commercial recombinant His-tagged protein (Sino Biological); amine-coupled to CM7 chip
T2 sequence (P55287 54-617 limits assumed): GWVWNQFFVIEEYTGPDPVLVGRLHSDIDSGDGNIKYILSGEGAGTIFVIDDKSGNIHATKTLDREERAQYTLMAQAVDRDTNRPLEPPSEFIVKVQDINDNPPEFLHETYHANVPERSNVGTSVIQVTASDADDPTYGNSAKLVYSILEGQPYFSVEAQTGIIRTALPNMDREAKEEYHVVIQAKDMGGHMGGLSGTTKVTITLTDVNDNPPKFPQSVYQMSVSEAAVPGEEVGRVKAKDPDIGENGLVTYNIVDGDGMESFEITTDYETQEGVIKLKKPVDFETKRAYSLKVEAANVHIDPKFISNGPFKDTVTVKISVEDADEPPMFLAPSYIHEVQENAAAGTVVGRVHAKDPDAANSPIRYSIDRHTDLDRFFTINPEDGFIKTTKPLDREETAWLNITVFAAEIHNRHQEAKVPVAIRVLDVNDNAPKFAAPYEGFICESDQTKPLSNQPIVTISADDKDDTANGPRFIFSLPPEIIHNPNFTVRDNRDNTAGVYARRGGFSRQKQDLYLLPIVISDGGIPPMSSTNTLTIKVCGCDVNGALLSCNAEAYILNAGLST

Cc1ccc(-c2cc(C(F)(F)F)nn2-c2ccc(S(N)(=O)=O)cc2)cc1 [CXB, Celecoxib]
cellular thermal shift assay (western blot) (CDH11 (SACC-83 cells)): All three compounds exhibited significant binding capability toward CDH11
pKd [1]: 5.33

SD-133
pKd ([1]; 25 °C, analyte 3.125-100 µM): 4.56

Cc1ccc(C)c(-c2cc(C(F)(F)F)nn2-c2ccc(S(N)(=O)=O)cc2)c1 [DMC, Dimethylcelecoxib]
cellular thermal shift assay (western blot) (CDH11 (SACC-83 cells)): All three compounds exhibited significant binding capability toward CDH11
pKd [1]: 4.96
